The record followed here is US5968923A, “(Azetidin-1-ylalkyl) lactams as tachykinin antagonists” (Pfizer Inc., priority 1994, dated 1999).

The target of test [1] is T1, human NK2 receptor (Homo sapiens, UniProt P21452).
T1 construct: expressed in transfected cells; host or cells: Chinese hamster ovary (CHO) cells, membranes
T1 sequence (P21452 1-398): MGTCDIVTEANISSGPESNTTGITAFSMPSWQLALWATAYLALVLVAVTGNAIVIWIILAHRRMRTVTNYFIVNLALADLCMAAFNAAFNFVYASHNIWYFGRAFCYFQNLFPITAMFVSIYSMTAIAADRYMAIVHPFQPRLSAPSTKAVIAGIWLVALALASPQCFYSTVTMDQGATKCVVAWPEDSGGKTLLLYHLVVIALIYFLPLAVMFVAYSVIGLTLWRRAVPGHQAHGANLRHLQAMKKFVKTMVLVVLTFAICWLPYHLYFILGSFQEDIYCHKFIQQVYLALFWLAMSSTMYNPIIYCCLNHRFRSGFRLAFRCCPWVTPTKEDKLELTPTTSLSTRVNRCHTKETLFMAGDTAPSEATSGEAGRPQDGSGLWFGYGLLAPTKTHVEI
Put plainly: Competition with [^125 I] NKA for binding to membranes from Chinese hamster ovary cells expressing the cloned human NK2 receptor (Method A). The conditions noted are these: Chinese hamster ovary cell membranes; for IC50: read-out: METHOD A (pIC50) (converted). On the procedure:
The affinity of the compounds of formula (I) and their salts for the human NK2 receptor can be tested in vitro by testing their ability to compete with [^3 H] or [^125 I]NKA (neurokinin A) for binding to membranes prepared from Chinese hamster ovary cells expressing the cloned human NK2 receptor. In this method, washed Chinese hamster ovary cell membranes are prepared as described for the previous method where IM9 cells are used instead. The membranes are incubated (90 min, 25° C.) with [^3 H] NKA and with a range of concentrations of the test compound. Non-specific binding was determined in the presence of 10 μM NKA.
(§1) A representative selection of the compounds of the Examples were tested in vitro for their affinity to the human NK2 receptor by testing their ability to compete with [^125 I] NKA for binding to membranes prepared from Chinese hamster ovary cells expressing the cloned human NK2 receptor (Method A) and for their ability to antagonise the contractile effects of [βAla^8 ] NKA(4-10) in the rabbit pulmonary artery (Method B) by the methods described on pages 40 and 41 of the specification.

The target in test [2] is T2, NK2 receptor (Oryctolagus cuniculus, UniProt P79218).
T2 construct: antagonise the contractile effects of [βAla^8 ]; NKA(4-10) in the rabbit pulmonary artery; from tissue; host or cells: rabbit pulmonary artery
T2 sequence (P79218 1-384): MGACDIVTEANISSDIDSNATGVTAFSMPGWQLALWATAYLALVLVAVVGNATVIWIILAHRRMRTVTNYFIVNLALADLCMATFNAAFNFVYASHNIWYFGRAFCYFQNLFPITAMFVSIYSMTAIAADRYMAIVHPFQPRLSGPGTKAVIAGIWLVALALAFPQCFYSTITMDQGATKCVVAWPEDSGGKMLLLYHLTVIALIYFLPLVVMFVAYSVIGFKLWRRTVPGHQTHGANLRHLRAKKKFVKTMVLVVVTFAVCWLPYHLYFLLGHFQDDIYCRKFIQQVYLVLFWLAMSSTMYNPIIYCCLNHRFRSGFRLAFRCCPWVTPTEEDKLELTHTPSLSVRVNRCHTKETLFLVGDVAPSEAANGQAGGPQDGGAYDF
Put plainly: Antagonism of the contractile effects of [βAla^8 ] NKA(4-10) in the rabbit pulmonary artery (Method B). It counts as cell-based. The conditions noted are these: agonist [βAla^8 ] NKA(4-10); for Kb: read-out: METHOD B (pA2) (converted). On the procedure: The NK2 receptor antagonist activity of the compounds of the formula (I) can be tested, in vitro, by testing their ability to antagonise the contractile effects of the selective NK2 receptor agonist [βAla^8 ]NKA(4-10) in the rabbit pulmonary artery, using the method of Patacchini and Maggi, Eur. J. Pharmacol., 236, 31-37 (1993).
as §1

On to `O=C1CCC(CCN2CC(N3[C@@H]4CC[C@H]3C[C@@H](O)C4)C2)(c2ccc(Cl)c(Cl)c2)CN1Cc1ccccc1` (stereo partly drawn) [Example 104, 1-Benzyl-5-(3,4-dichlorophenyl)-5-(2-[3-(endo-3-hydroxy-8-azabicyolo[3,2,1]oct-8-yl)azetidin-1-yl]ethyl)-2-piperidone], for which the “METHOD A (pIC50)” value in test [1] was 8.8. Moreover, in test [2], the “METHOD B (pA2)” value amounted to 9.2.

As for `O=C1CCC(CCN2CC(N3CC[S+]([O-])CC3)C2)(c2ccc(F)c(F)c2)CN1Cc1ccccc1` (stereo not drawn) [Example 14], the IC50 in test [1] is 63.1 nM. Moreover, in test [2], the Kb is 12.6 nM.

With `CC1CCCCC1CN1CC(CCN2CC(N3CCOCC3)C2)(c2ccc(Cl)c(Cl)c2)CCC1=O` (stereo not drawn) [Example 73], the IC50 in test [1] is 0.316 nM. Moreover, in test [2], the Kb is 1.26 nM.

With `CC(c1ccccc1)N1CC(CCN2CC(N3CCOCC3)C2)(c2ccc(Cl)c(Cl)c2)CCC1=O` (stereo not drawn) [Example 75 (enantiomeric pair A)], the IC50 in test [1] is 5.01 nM. The Kb in test [2] was 0.794 nM.

`O=C1CCC(CCN2CC(C(=O)N3CCCCC3)C2)(c2ccc(Cl)c(Cl)c2)CN1Cc1ccccc1` (stereo not drawn) [Example 31]: the IC50 in test [1] is 1 nM. Also, the Kb in test [2] was 5.01 nM.

Take `CS(=O)(=O)N1CCN(C2CN(CCC3(c4ccc(Cl)cc4)CCC(=O)N(CC4CCCCC4)C3)C2)CC1` (stereo not drawn) [Example 89]: in test [1], the IC50 was 6.31 nM. In addition, the Kb in test [2] was 2.51 nM.
